{"source": "patent US10610573B2", "about": "“NDP-MSH for treatment of inflammatory and/or neurodegenerative disorders of the central nervous system” (Westfaelische Wilhelms—Universitaet Muenster, priority 2013, dated 2020)", "key": {"[1]": {"settings": "rat, in vivo; cited from earlier work"}, "dendritic cells": {"system": "dendritic cells", "test": "DC phenotype in regional lymph nodes of immunized mice", "type": "in vivo, mouse", "settings": "vs PBS", "procedure": "FIG. 5 Generation of tolerogenic dendritic cells by NDP-MSH treatment. The DC phenotype in regional lymph nodes from immunized NDP-MSH and PBS treated mice was analyzed. One representative dot plot (A) as well as the statistical evaluation from n=2-6 mice (B) is depicted. Cells are gated for MHCII and IL-10 as well as IFN-γ staining was performed after cell permeabilization. *, p<0.05 versus PBS treated mice.\nFurther, the DC phenotype in regional lymph nodes from immunized NDP-MSH and PBS treated mice was analyzed."}, "effector T cells": {"system": "effector T cells", "test": "Suppression of effector T cell proliferation in vitro by Treg from treated mice", "type": "cell-based, mouse"}, "Nur77": {"system": "Nur77", "test": "Nur77 expression in NDP-MSH stimulated neurons", "type": "cell-based", "settings": "vs vehicle-treated controls"}, "[2]": {"system": "rat primary astrocytes and microglia", "settings": "in vitro, via MC-4R signaling; cited from earlier work"}, "DEREG mice": {"system": "DEREG mice", "test": "EAE in Treg-depleted DEREG mice", "type": "in vivo, mouse", "settings": "Treg depleted by diphtheria toxin, 5 μg i.v. every 48 hours", "source_text": "Treg were depleted in DEREG mice as described by Lahl et al. (2007) by systemic treatment with diphtheria toxin. Subsequently, EAE was induced as described in FIG. 1.\nSubsequently, EAE was induced as described in Ex. 1."}, "Devic mice": {"system": "Devic mice", "test": "Spontaneous EAE model (Devic mice)", "type": "in vivo, mouse", "procedure": "FIG. 7 Devic mice at the age of 38 days and a clinical score of 7 (severe hind limb paralysis) were injected intravenously with 5 μg NDP-MSH every other day for 3 weeks. […] Disease progression was monitored over time.\nTo characterize the effects of NDP-MSH in a spontaneous EAE model Devic mice were used. Devic mouse mutants express transgenic T- and B-cell receptors specific for MOG and spontaneously develop EAE at the age of 4-5 weeks (Bettelli et al., 2006).\nStarting at the age of 38 days when mice reached a clinical score of 7 (severe hind limb paralysis) animals were injected intravenously with 5 μg NDP-MSH every other day. […] Part of the mice almost completely recovered from disease. At day 60, NDP-MSH treatment was interrupted and mice were monitored for the onset of clinical symptoms."}, "MOG-immunized mice": {"system": "MOG-immunized mice", "test": "MOG-induced EAE, preemptive NDP-MSH injection", "type": "in vivo, mouse", "settings": "preemptive injection before onset of hind limb paralysis", "from_the_text": "The neuropeptide α-MSH is a potent immunomodulator capable of inducing immunosuppression and tolerance. Using the mouse model of experimental autoimmune encephalomyelitis (EAE) the present inventors systemically treated MOG-immunized mice with NDP-MSH before and after the onset of hind limb paralysis. […] Since signaling via melanocortin-1-receptor (MC-1R) mediates the immunomodulatory effects of α-MSH, EAE was induced in MC-1R-deficient mice."}, "CD11c-DTR mice": {"system": "CD11c-DTR mice", "test": "EAE in DC-depleted CD11c-DTR mice", "type": "in vivo, mouse", "settings": "DC depleted by diphtheria toxin, 5 μg i.v. every 48 hours", "quoted_text": "DC were depleted in C11c-DTR mice as described by Hochweller et al. (2008) by systemic treatment with diphtheria toxin. Subsequently, EAE was induced as described in FIG. 1. 5 μg NDP-MSH were injected intravenously every 48 hours and disease progression was monitored over time."}, "MC-1R deficient mice": {"system": "MC-1R deficient mice", "test": "EAE in MC-1R deficient mice", "type": "in vivo, mouse", "settings": "treated as in Ex. 1", "from_the_text": "FIG. 6 Involvement of the melanocortin-1 receptor in effects of NDP-MSH on EAE progression. EAE was induced in MC-1R deficient mice as described in FIG. 1. Subsequently, disease development was monitored over time.\nTo investigate whether the NDP-MSH induced effects on the progression of EAE were mediated via binding to a functional MC-1R, EAE was induced in MC-1R deficient mice with a point mutation in the MC-1R gene resulting in a truncated protein (Roberts et al., 1993). Mice were immunized with MOG35-55, injected with pertussis toxin and treated with NDP-MSH or PBS as described in Ex. 1. Subsequently, disease development was monitored over time."}, "[3]": {"system": "Th1 and Th17 cells in the CNS", "test": "Flow cytometry of pathogenic Th1 and Th17 cells in the CNS of EAE mice", "type": "in vivo, mouse", "settings": "day 17 post immunization, brain and spinal cord, n=8, vs PBS controls", "procedure": "FIG. 3 Effect of NDP-MSH treatment of numbers of pathogenic Th1 and Th17 cells in the CNS. At day 17 post immunization brain and spinal cord from EAE mice treated with PBS and NDP-MSH as described for FIG. 1 were isolated. Cells were analyzed by multi-color flow cytometry using antibodies against CD4, IL-17, ROR-γt, IFN-γ and T-bet. One representative image (A) as well as the statistical evaluation from n=8 mice in each group (B) is shown, Cells are gated for CD4 and IL-17, ROR-γt, IFN-γ as well as T-bet staining was performed after cell permeabilization.\nReduced numbers of pathogenic Th1 and Th17 cells in the CNS from NDP-MSH treated mice compared to PBS-treated controls. At day 17 post immunization brain and spinal cord were isolated from PBS- and NDP-MSH-treated mice and single cell suspensions were prepared using density gradient centrifugation. Subsequently, cells were analyzed by multi-color flow cytometry using antibodies against CD4, IL-17, ROR-gt, IFN-g and T-bet. […] Cells are gated for CD4 and IL-17, ROR-gt, IFN-g as well as T-bet staining was performed after cell permeabilization."}, "primary mouse neurons": {"system": "primary mouse neurons", "test": "Glutamate-stimulated primary neurons, apoptosis genes and neuronal damage", "type": "cell-based", "procedure": "FIG. 10 Expression of pro-apoptotic (caspase-8) and anti-apoptotic (Bcl-2) genes in primary mouse neurons after treatment with […] Glutamat or 50 μM Glutamat+1 nM NDP-MSH. Primary murine neurons were stimulated with glutamate which results in apoptosis (increased expression of pro-apoptotic caspase-8 and a reduced expression of anti-apoptotic Bcl-2 relative to PBS-treated controls).\nThe neuroprotective role of NDP-MSH was further confirmed analyzing neurons from NDP-MSH-treated animals and vehicle-treated controls (isolated before and after MOG immunization) using histological staining tests for the detection of myelin, NeuN, act. Caspase 3 and TUNEL. Further, in vitro stimulation of neurons from embryonic mice with glutamate—which causes cell damage—in the presence or absence of NDP-MSH and subsequent histological staining tests for the detection of myelin, NeuN, act. […] Thus, a neuroprotective effect of NDP-MSH is a very likely explanation for the observed effect in the EAE model."}, "brain tissue of EAE mice": {"system": "brain tissue of EAE mice", "test": "Histology and immunofluorescence of brain tissue from EAE mice", "type": "in vivo, mouse", "settings": "day 17 post immunization, vs PBS", "procedure": "FIG. 2 Histological analyses of brain tissue obtained from mice treated as described in FIG. 1. […] One representative image for each group (+NDP-MSH, +PBS) is shown.\nBrain tissue from mice treated with NDP-MSH or PBS at day 17 post immunization obtained from Ex. 1 was analyzed. […] One representative overview (A) as well as a sectional enlargement (B) is depicted for each group. […] One representative image for each group is shown."}, "[4]": {"system": "C57BL/6 mice with experimental autoimmune encephalomyelitis (EAE)", "test": "MOG35-55-induced EAE, therapeutic systemic NDP-MSH treatment", "type": "in vivo, mouse", "settings": "5 μg NDP-MSH i.v. every 48 h from clinical score 2-3 (day 12), vs PBS", "procedure": "FIG. 1 Effect of systemic NDP-MSH treatment on ongoing Experimental Autoimmune Encephalomyelitis (EAE). C57BL/6 mice were actively immunized by subcutaneous injection of myelin oligodendrocyte glycoprotein (MOG35-55) emulsified in Complete Freund's Adjuvant and systemically treated with 5 μg NDP-MSH or PBS every 48 hours beginning at a clinical score of 2-3. Mice were monitored for clinical score (A) and body weight (B) and sacrificed at day 17. Data from n=17 mice in each group is depicted, *, p<0.05 versus PBS-treated controls.\nTo investigate whether NDP-MSH is able to inhibit autoimmunity and inflammation in organs different from the skin, such as the central nervous system (CNS), the mouse model of experimental autoimmune encephalomyelitis (EAE), a T cell-mediated inflammatory autoimmune disease resembling human multiple sclerosis, was used.\nTherefore, C57BL/6 mice were actively immunized by subcutaneous injection of myelin oligodendrocyte glycoprotein (MOG35-55) emulsified in Complete Freund's Adjuvant at the back skin (day 0). At day 0 and day 2 mice received intraperitoneal injections of 400 ng pertussis toxin and disease development was monitored daily. […] All mice were sacrificed at day 17 and analyzed on a cellular and molecular level. […]"}, "[5]": {"system": "Foxp3+ regulatory T cells", "test": "Flow cytometry of Foxp3+ regulatory T cells from brain tissue of EAE mice", "type": "in vivo, mouse", "settings": "day 17 post immunization, vs controls", "procedure": "FIG. 4 Induction of functional regulatory T cells in the CNS by NDP-MSH treatment. Numbers, phenotype, and function of Foxp3^+ regulatory T cells isolated from brain tissue of NDP-MSH and PBS treated mice were analyzed. One representative dotplot (A) as well as the statistical evaluation from n=6 mice (B) is depicted. Cells are gated for CD4 and Foxp3 as well as Helios staining was performed after cell permeabilization. *, p<0.05 versus PBS treated mice.\nNumbers, phenotype and function of Foxp3^+ regulatory T cells (Treg) isolated from brain tissue of NDP-MSH and PBS treated mice as described in Ex. 1 was analyzed at day 17 post immunization by flow cytometry analysis."}, "[6]": {"settings": "50 μM glutamate + 1 nM NDP-MSH vs glutamate alone"}}}
{"substance": "melanotan-II", "values": [{"measurement": "nerve regeneration and neuroprotection", "setting": "[1]", "result": "effective in nerve regeneration and neuroprotection"}]}
{"substance": "[Nle^4, D-Phe^7]-α-MSH [NDP-MSH]", "values": [{"measurement": "DC expression of PD-L1 or IL-10", "setting": "dendritic cells", "result": "increased levels"}, {"measurement": "DC maturation markers CD80 and IFN-γ", "setting": "dendritic cells", "result": "down-regulated"}, {"measurement": "function of Treg from treated mice: proliferation of effector T cells", "setting": "effector T cells", "result": "efficiently inhibited the proliferation of effector T cells"}, {"measurement": "Nur77 receptor expression", "setting": "Nur77", "result": "induction of the neuroprotective Nur77 receptor"}, {"measurement": "release of IL-10 and TGF-β", "setting": "[2]", "result": "stimulates the release of IL-10 and TGF-β"}, {"measurement": "disease severity", "setting": "DEREG mice", "result": "reduced disease severity"}, {"measurement": "disease course (clinical symptoms of EAE)", "setting": "Devic mice; 5 μg i.v. every other day for 3 weeks from day 38, clinical score 7", "result": "significant amelioration of disease in all animals"}, {"measurement": "body weight", "setting": "Devic mice; 5 μg i.v. every other day for 3 weeks, vs PBS", "result": "gained weight"}, {"measurement": "disease recurrence after treatment interruption", "setting": "Devic mice; treatment interrupted at day 60, several weeks without injection", "result": "no disease recurrence"}, {"measurement": "EAE development", "setting": "MOG-immunized mice", "result": "resistant to EAE development"}, {"measurement": "disease onset", "setting": "CD11c-DTR mice", "result": "prevented disease onset"}, {"measurement": "disease development (hind limb paralysis)", "setting": "MC-1R deficient mice", "result": "developed hind limb paralysis similar to PBS treated controls"}, {"measurement": "reduced infiltration of Th1 cells in the CNS", "setting": "[3]", "result": 2, "unit": "factor"}, {"measurement": "reduced infiltration of Th17 cells in the CNS", "setting": "[3]", "result": 5, "unit": "factor"}, {"measurement": "expression of anti-apoptotic Bcl-2", "setting": "primary mouse neurons; [6]", "result": "increased expression of anti-apoptotic Bcl-2"}, {"measurement": "expression of pro-apoptotic caspase-8", "setting": "primary mouse neurons; [6]", "result": "reduced expression of pro-apoptotic caspase-8"}, {"measurement": "glutamate-induced neuronal damage (myelin, NeuN, act. Caspase 3, TUNEL staining)", "setting": "primary mouse neurons; neurons from embryonic mice, in vitro", "result": "reduce the glutamate-induced neuronal damage"}, {"measurement": "expression of tissue destruction marker APP in the brain", "setting": "brain tissue of EAE mice; immunofluorescence", "result": "Dramatically reduced expression"}, {"measurement": "expression of tissue inflammation marker RILPL2 in the brain", "setting": "brain tissue of EAE mice; immunofluorescence", "result": "Dramatically reduced expression"}, {"measurement": "mononuclear pro-inflammatory cells infiltrating the brain (H&E staining)", "setting": "brain tissue of EAE mice", "result": "almost no cell infiltrates were detectable"}, {"measurement": "myelination of the brain (luxol fast blue staining)", "setting": "brain tissue of EAE mice", "result": "tremendous re-myelination"}, {"measurement": "body weight", "setting": "[4]", "result": "started gaining weight after the first injection"}, {"measurement": "paralysis (clinical score)", "setting": "[4]", "result": "recovered from paralysis"}, {"measurement": "numbers of Foxp3+ Treg expressing Helios or CTLA-4 in brain tissue", "setting": "[5]", "result": "present at higher numbers"}]}
